In patent US20180353512A1, “COMBINATION THERAPIES FOR TREATING B-CELL MALIGNANCIES” (GILEAD SCIENCES, INC., priority 2015, published 2018):
Read-outs that look alike come from different tables or passages of the source.

Experiments:
p-BTK (Y223) = experiment: Western Blot of TMD8 xenograft tumor samples; format: in vivo, mice; conditions: Compound B 10 mg/kg; normalized to total BTK
Experimental: (§1) Tumor samples obtained from the study were lysed and Western Blot was performed on the samples to determine the level of BTK and S6 phosphorylation, a downstream effector of PI3K signaling. Western Blots were performed according to the Western Blot procedure described in Example 3B above, using antibodies against p-S6 (S235/236), p-BTK (Y223), BTK and actin. Protein levels were determined using Peggy Sue (ProteinSimple) automated Western Blot system. Normalized AUC were determined for each of the treatment groups: p-BTK (Y223) was normalized to total BTK protein, and p-S6 (S235/236) was normalized to actin.

p-S6 (S235/236) = experiment: Western Blot of TMD8 xenograft tumor samples; format: in vivo, mice; conditions: single agent; PI3Kδ inhibitor 5 mg/kg, Compound B 10 mg/kg
Experimental: as §1

c-Myc = c-Myc RNAseq and western blot in ABC-DLBCL cell lines; format: cell-based
Experimental: Gene expression levels and mutations were determined by […]. The following bioinformatics platforms were used to analyze the sequence reads: DNA sequencing reads were aligned to human reference genome by BWA. Single nucleotide variants were identified using VarScan and were annotated using SnpEff Putative somatic mutations were prioritized by mutant allele frequency, recurrence and predicted functional impact. RNA sequencing reads were aligned to human reference genome using STAR and RNA abundance was quantified using RSEM. The Bioconductor package edgeR was used to normalize sequence count and limma was used to conduct differential gene expression analysis.
Protein expression was measured using Simple Western, SDS/PAGE and Western Blot or Peggy Sue (ProteinSimple), generally according to the procedures described above in Example 3B. Primary antibodies used to test phosphorylated protein or total protein levels include antibodies against: p-AKT (S473), p-AKT (T308), AKT, p-ERK (T202/Y204), p-S6 (S235/236), S6, p-PDK1 (S241), p-PLCγ2 (Y1217), p-GSK3β (S9), p-STAT3 (Y705), p-IκBα (S32), IκBα, p-SYK (Y525/526), p-BTK (Y223), PI3Kγ, PTEN, and actin.

parental TMD-8 = experiment: 96-hour Cell Titer Glo viability assay, parental line; design: Emax: dose or concentration left out as unconfirmed; conditions: Homo sapiens
[1] = tested on: TMD8^R (Idelalisib-resistant line); experiment: CellTiter-Glo viability assay at 96 h; format: cell-based; conditions: TMD8^R
Experimental: Growth inhibition to Idelalisib or other inhibitors was assessed using CellTiter-Glo viability assay at 96 h. […] Cell lines were analyzed by whole exome sequencing, RNASeq, and phosphoproteomics. Protein expression was measured using Simple Western and SDS/PAGE and western blot. Caspase 3/7 was measured using Caspase-Glo 3/7 assay; apoptosis was measured with Annexin V assay and propidium iodide by flow cytometry.
Cell viability EC50 was determined using a sigmoidal dose-response (variable slope) curve generated from quadruplicate samples. Statistical significance was determined using the student's t-test for cell viability and two-tailed paired t-test for apoptosis experiments in Prism (GraphPad).
Idelalisib-resistant (TMD8^R) cell line and passage-matched Idelalisib-sensitive (TMD8^S) cell line were generated according to the procedure described in Example 5 above. To characterize the resistant cells, cell viability assays, RNASeq of multidrug resistance (MDR) family of ABC transporter genes (N=33), apoptosis assays, and phosphoprotein analysis were performed. Cell viability was measured using CellTiter-Glo, as described in Example 1A above. Western blot and protein level analysis were performed after treatment with 420 nM idelalisib, 320 nM Compound B and combination thereof, using Peggy Sue (ProteinSimple) automated Western Blot system. Protein concentration (pg/μL) was quantitated using recombinant protein standards. Normalized AUC were determined for each of the treatment groups, normalized to actin. Apoptosis was assessed by propidium iodide and Annexin V/FITC staining and measured by flow cytometry, as described in Example 1A above. Western Blot with anti-p-AKT (S473) antibody and Peggy Sue were used to determine the phosphorylation state of downstream signaling components.

[2] = tested on: FSCCL^R clone 1 (PI3KCA E970K); experiment: CellTiter Glo viability assay after 96 h; format: cell-based; conditions: single agent, read-out: EC50
Experimental: (§2) Idelalisib resistance was established by continuous passaging of a clonal isolate of WSU-FSCCL in the presence of 1 μM idelalisib; clonal isolates from a passage-matched line (FSCCL^S) and idelalisib-resistant line (FSCCL^R) were generated through 2 rounds of single-cell-limiting dilution. Growth inhibition to idelalisib or other inhibitors was performed after 96 h using CellTiter Glo viability assay. Characterization of mutations and gene expression were identified by whole exome sequencing and RNA-Seq, respectively. Whole cell lysates were analyzed by western blots.

[3] = tested on: FSCCL^R clone 3 (PI3KCA P539R); experiment: CellTiter Glo viability assay after 96 h; format: cell-based; conditions: single agent, read-out: EC50
Experimental: as §2

FSCCL^R = experiment: CellTiter Glo viability assay after 96 h; format: cell-based; conditions: FIG. 16, read-out: EC50, cell viability
Experimental: as §2

[4] = tested on: FSCCL^R clone 2 (PI3KCA N345K); experiment: CellTiter Glo viability assay after 96 h; format: cell-based; conditions: single agent, read-out: EC50
Experimental: as §2

FSCCL^R SFK^HIGH = experiment: CellTiter Glo viability assay after 96 h; format: cell-based
Experimental: as §2

FSCCL (WSU-FSCCL) = experiment: CellTiter Glo viability assay after 96 h; format: cell-based; conditions: read-out: EC50, cell viability
Experimental: as §2

SMILES | reduction of p-BTK in tumors (p-BTK (Y223)) | effect on p-S6 in tumors (p-S6 (S235/236)) | c-Myc mRNA (RNAseq) (c-Myc; 500 nM idelalisib, sensitive cell lines (TMD8 and Ri-1)) | c-Myc (western blot) (c-Myc; TMD8^S) | EC50 (parental TMD-8; TMD8, read-out: EC50, cell viability) | Emax (parental TMD-8; TMD8, read-out: Emax, growth inhibition) | inhibition at 1 µM ([1]; at 1 μM, read-out: Growth inhibition) | EC50 ([1]; single agent, read-out: EC50, cell viability) | EC50 [2] | EC50 [3] | EC50 (FSCCL^R) | EC50 [4] | EC50 (FSCCL^R SFK^HIGH; read-out: EC50 IDELA (+Dasatinib 10 nM)) | EC50 (FSCCL^R SFK^HIGH; read-out: EC50 IDELA (+ENTO 680 nM)) | EC50 (FSCCL (WSU-FSCCL))
CC#CC(=O)N1CC[C@@H](n2c(=O)n(-c3ccc(Oc4ccccc4)cc3)c3c(N)ncnc32)C1 [Compound B, 6-amino-9-[(3R)-1-(2-butynoyl)-3-pyrrolidinyl]-7-(4-phenoxyphenyl)-7,9-dihydro-8H-purin-8-one] | 35% | did not have an effect | – | – | – | – | – | – | – | – | – | – | – | – | –
CCC(Nc1ncnc2[nH]cnc12)c1nc2cccc(F)c2c(=O)n1-c1ccccc1 (stereo not drawn) [Idelalisib, 2-(1-((9H-Purin-6-yl)amino)propyl)-5-fluoro-3-phenylquinazolin-4(3H)-one] | – | – | c-Myc mRNA downregulation | inhibited | 54 nM | 86% | 19% | > 10000 nM | > 3000 nM | > 3000 nM | > 10000 nM | > 3000 nM | 1880 nM | 2270 nM | 140 nM
